From article PMC12612990, “PNA5, a glycosylated angiotensin-(1−7) mas receptor agonist for vascular dementia: A two species toxicology and toxicokinetic study” (Toxicology Reports, 2025)
Peptide text beside a SMILES is read from it. * marks the point of attachment. βGlc = OC[C@H]1O[C@@H](*)[C@H](O)[C@@H](O)[C@@H]1O

Columns and labels:
[1] = Toxicokinetics of PNA5 in Beagle dog plasma; conditions: Beagle, dog, plasma, sc, 20 mg/kg/day, dogs, 20 mg/kg/day (NOAEL), day 28; for Cmax: mean Cmax
Description: (§1) Toxicokinetic (TK) of PNA5 was obtained from plasma following a single and repeated subcutaneous injection administration of PNA5 once daily for 28 days. Blood samples were collected on days 1 and 28 at the following time points: pre-dose and at approximately 5, 15, 30, 60, and 120 min post-dose (equivalent to 0.083, 0.25, 0.5, 1, and 2 h).
(§2) For the rat study, a total of 6 rats for each sex were assigned randomly to treatment groups 2–4 (those treated with PNA5). Three rats per sex were assigned to group 1 (vehicle control). Rats were sampled in satellite groups; rats' blood was taken at alternating time points, resulting in a total n = 3 per time point for six animals. For the dog study, three animals per sex were assigned to group 2 and group 3, and five animals per sex were assigned to group 1 and group 4. Blood was collected from canines via venipuncture.
(§3) Blood was collected in heparinized tubes containing a protease inhibitor cocktail consisting of 4 mM 0-phenanthroline, 1.2 mM pepstatin A, and 0.5 M EDTA. Blood samples were centrifuged for 15 min at 2500 x g at room temperature. Plasma was transferred into pre-cooled, pre-labeled collection tubes, frozen immediately in liquid nitrogen/dry ice, and stored at −80 °C until analysis.
(§4) PNA5 levels were analyzed using ultra-high performance liquid chromatography (UHPLC) with tandem mass spectrometric (MS/MS) detection. Precision and accuracy, reproducibility, selectivity, carryover, recovery, matrix effects, dilution integrity, hemolysis, stock stability, and matrix stability were assessed prior to initiation of the validation. Samples (5 µL) were injected onto the column and separated using gradient elution. Target compounds were quantified by summing the height of previously identified fragment peaks in the LC-MS [3] spectra. The serum concentrations were estimated using a calibration curve, accounting for the dilution factors and the probe recoveries for each experiment. Standards were matrix-matched to samples and underwent the same sample preparation steps.
(§5) A noncompartmental analysis was used for parameter estimation. For PNA5 in plasma, the extravascular model was used for parameter estimation. For the rat study, all parameters were generated from PNA5 individual concentrations in plasma from days 1 and 28. Parameters were estimated using nominal dose levels and nominal sampling times relative to the dose administration. Plasma concentration values obtained at the pre-dose time point were used as the concentration at time 0 on days 1 and 28. For the dog study, all parameters were generated from PNA5 individual concentrations in plasma from days 1 and 28. Parameters were estimated using nominal dose levels and nominal sampling times relative to dose administration. Plasma concentration values obtained at the pre-dose time point were used as the concentration at time 0 on days 1 and 28. For Beagle dogs, concentration values reported as below the limit of quantitation (< 5 ng/mL) were assigned a value of 0.
(§6) The toxicokinetic parameters evaluated included the area under the curve of the plasma PNA5 concentration against time from time 0 (pre-dose) to 2 h (post-dose) (AUC0–2hr), the maximum plasma concentration (Cmax), time to maximum plasma concentration (Tmax), elimination rate (Kel), and the half-life. The area under the concentration vs. time curve was calculated using the linear trapezoidal method with linear interpolation for all profiles with at least three consecutive quantifiable concentrations. Kel was calculated from the slope using exponential regression of concentration versus time (Excel); exponential interpolations for all profiles include at least three concentrations plotted against time. Time 0 values and all concentrations listed as zero were excluded from Kel calculations. The half-life was calculated from Kel via the following equation: half-life Ln(2)/Kel.

[2] = Stability of dosing formulations; type: physicochemical; conditions: solutions in 0.9 % sodium chloride, 0.1 mg/mL and 10 mg/mL
Description: The analyzed dosing formulations were within the protocol-specified range of target concentrations for solutions and were stable at 0.1 mg/mL and 10 mg/mL following 24 h of room temperature storage and following 9 days of refrigerated storage.
The analyzed dosing formulations contained 95.5–108.7 % of the test article, which was within the protocol-specified range of target concentrations for solutions (90–110 %), and were stable at 0.1 mg/mL and 10 mg/mL following 24 h of room temperature storage and following 9 days of refrigerated storage. The test article was not detected in the analyzed vehicle formulation that was administered to the control groups.

[3] = Toxicokinetics of PNA5 in Sprague Dawley rat plasma; conditions: for AUC(0-t) / Cmax / half-life / Tmax: both, Sprague Dawley, rat, sc; for AUC(0-t) / Cmax / half-life / Tmax / Kel: plasma; for AUC(0-t): AUC0–2, rats, n = 6, linear trapezoidal; for AUC(0-t) / Cmax / half-life / Kel: mean ± SD; for Cmax: Sprague Dawley rats, n = 6, UHPLC-MS/MS, noncompartmental; for half-life: n = 6, Ln(2)/Kel; for AUC0–2hr averaged accumulation ratio: day 1 to day 28, sexes combined; for F:M AUC0–2hr ratio: printed as on day 1; for fold increase in AUC0–2hr for a 40-fold increase in dose / fold increase in Cmax for a 40-fold increase in dose: 1 to 40 mg/kg/day; for Kel: n = 6, exponential regression
Description: as §1, §2, §3, §4, §5, §6

**Q.** With `CC[C@H](C)[C@H](NC(=O)[C@H](Cc1ccc(O)cc1)NC(=O)[C@@H](NC(=O)[C@H](CCCNC(=N)N)NC(=O)[C@@H](N)CC(=O)O)C(C)C)C(=O)N[C@@H](Cc1c[nH]cn1)C(=O)N[C@@H](CO[C@@H]1O[C@H](CO)[C@@H](O)[C@H](O)[C@H]1O)C(N)=O` [PNA5, Ang-1–6-Ser-O-Glu-NH2] (H-DRVYIHS(βGlc)-NH2) as the compound, how does the Cmax ([1]; female, females, females) read?
**A.** 1140 ng/mL

**Q.** And the AUC(0-t) ([1]; male, mean AUC0–2hr, males, males)?
**A.** 1000 ng·h/mL

**Q.** What about the Cmax ([1]; male, males, males) of the same compound?
**A.** 1100 ng/mL

**Q.** And the “stability of dosing formulations” value ([2]; 24 h of room temperature storage)?
**A.** stable

**Q.** And the “stability of dosing formulations” value ([2]; 9 days of refrigerated storage)?
**A.** stable

**Q.** And the AUC(0-t) ([3]; 1 mg/kg/day, s.c. 1 mg/kg/day, day 1, sexes combined)?
**A.** 0.263 ± 0.0315 ng·h/mL

**Q.** And the AUC(0-t) ([3]; 1 mg/kg/day, s.c. 1 mg/kg/day, day 28, sexes combined)?
**A.** 0.464 ± 0.0741 ng·h/mL

**Q.** What about the Cmax ([3]; 1 mg/kg/day, s.c. once daily 1 mg/kg/day, day 1, sexes combined) of the same compound?
**A.** 0.591 ± 0.25 ng/mL

**Q.** What about the Cmax ([3]; 1 mg/kg/day, s.c. once daily 1 mg/kg/day, day 28, sexes combined) of the same compound?
**A.** 0.968 ± 0.28 ng/mL

**Q.** And the half-life ([3]; 1 mg/kg/day, rats, s.c. 1 mg/kg/day, day 1, sexes combined)?
**A.** 36 ± 6 min

**Q.** What about the half-life ([3]; 1 mg/kg/day, rats, s.c. 1 mg/kg/day, day 28, sexes combined) of the same compound?
**A.** 30.6 ± 9 min

**Q.** And the Tmax ([3]; 1 mg/kg/day, rats, s.c. 1 mg/kg/day, day 1, sexes combined, average (range lowest to highest))?
**A.** 6.6 min

**Q.** And the Tmax ([3]; 1 mg/kg/day, rats, s.c. 1 mg/kg/day, day 28, sexes combined, average (range lowest to highest))?
**A.** 10.2 min

**Q.** What about the AUC(0-t) ([3]; 5 mg/kg/day, s.c. 5 mg/kg/day, day 1, sexes combined) of the same compound?
**A.** 1.55 ± 0.789 ng·h/mL

**Q.** And the AUC(0-t) ([3]; 5 mg/kg/day, s.c. 5 mg/kg/day, day 28, sexes combined)?
**A.** 2.86 ± 1.72 ng·h/mL

**Q.** And the Cmax ([3]; 5 mg/kg/day, s.c. once daily 5 mg/kg/day, day 1, sexes combined)?
**A.** 3.37 ± 1.99 ng/mL

**Q.** What about the Cmax ([3]; 5 mg/kg/day, s.c. once daily 5 mg/kg/day, day 28, sexes combined) of the same compound?
**A.** 5.35 ± 2.77 ng/mL

**Q.** And the half-life ([3]; 5 mg/kg/day, rats, s.c. 5 mg/kg/day, day 1, sexes combined)?
**A.** 25.2 ± 7.8 min

**Q.** What about the half-life ([3]; 5 mg/kg/day, rats, s.c. 5 mg/kg/day, day 28, sexes combined) of the same compound?
**A.** 22.2 ± 7.8 min

**Q.** What about the Tmax ([3]; 5 mg/kg/day, rats, s.c. 5 mg/kg/day, day 1, sexes combined, average) of the same compound?
**A.** 4.98 min

**Q.** What about the Tmax ([3]; 5 mg/kg/day, rats, s.c. 5 mg/kg/day, day 28, sexes combined, average (range lowest to highest)) of the same compound?
**A.** 11.4 min

**Q.** What about the AUC(0-t) ([3]; 40 mg/kg/day, s.c. 40 mg/kg/day, day 1, sexes combined) of the same compound?
**A.** 16.1 ng·h/mL

**Q.** What about the AUC(0-t) ([3]; 40 mg/kg/day, s.c. 40 mg/kg/day, day 28, sexes combined) of the same compound?
**A.** 29.6 ng·h/mL

**Q.** What about the Cmax ([3]; 40 mg/kg/day, s.c. once daily 40 mg/kg/day, day 1, sexes combined) of the same compound?
**A.** 40.8 ng/mL

**Q.** What about the Cmax ([3]; 40 mg/kg/day, s.c. once daily 40 mg/kg/day, day 28, sexes combined) of the same compound?
**A.** 62.5 ng/mL

**Q.** And the half-life ([3]; 40 mg/kg/day, rats, s.c. 40 mg/kg/day, day 1, sexes combined)?
**A.** 19.8 ± 4.8 min

**Q.** What about the half-life ([3]; 40 mg/kg/day, rats, s.c. 40 mg/kg/day, day 28, sexes combined) of the same compound?
**A.** 23.4 ± 3.6 min

**Q.** What about the Tmax ([3]; 40 mg/kg/day, rats, s.c. 40 mg/kg/day, day 1, sexes combined, average (range lowest to highest)) of the same compound?
**A.** 8.4 min

**Q.** What about the Tmax ([3]; 40 mg/kg/day, rats, s.c. 40 mg/kg/day, day 28, sexes combined, average (range lowest to highest)) of the same compound?
**A.** 10.2 min

**Q.** What about the “AUC0–2hr averaged accumulation ratio” value ([3]; rats, 1 mg/kg/day) of the same compound?
**A.** 1.76

**Q.** And the “F:M AUC0–2hr ratio” value ([3]; rats, 5 mg/kg/day)?
**A.** 0.66–1.58

**Q.** And the “AUC0–2hr averaged accumulation ratio” value ([3]; rats, 40 mg/kg/day)?
**A.** 1.84

**Q.** And the “F:M AUC0–2hr ratio” value ([3]; rats, 40 mg/kg/day)?
**A.** 1.16–1.32

**Q.** What about the “fold increase in AUC0–2hr for a 40-fold increase in dose” value ([3]; rats, day 1, sexes combined) of the same compound?
**A.** ~61.22 fold

**Q.** And the “fold increase in Cmax for a 40-fold increase in dose” value ([3]; rats, day 1, sexes combined)?
**A.** ~69.09 fold

**Q.** What about the “fold increase in AUC0–2hr for a 40-fold increase in dose” value ([3]; rats, day 28, sexes combined) of the same compound?
**A.** ~63.93 fold

**Q.** And the “fold increase in Cmax for a 40-fold increase in dose” value ([3]; rats, day 28, sexes combined)?
**A.** ~64.56 fold

**Q.** And the “F:M Cmax ratios” value ([3]; rats, day 28, range across doses)?
**A.** 1.24 – 1.37

**Q.** What about the Kel ([3]; rats, s.c. 1 mg/kg/day, day 1, sexes combined) of the same compound?
**A.** 1.18 ± 0.18, 6 hr–1

**Q.** And the Kel ([3]; rats, s.c. 5 mg/kg/day, day 1, sexes combined)?
**A.** 1.79 ± 0.67, 6 hr–1

**Q.** What about the Kel ([3]; rats, s.c. 5 mg/kg/day, day 28, sexes combined) of the same compound?
**A.** 2.08 ± 0.86, 6 hr–1

**Q.** What about the Kel ([3]; rats, s.c. 40 mg/kg/day, day 1, sexes combined) of the same compound?
**A.** 2.24 ± 0.83, 6 hr–1

**Q.** What about the Kel ([3]; rats, s.c. 40 mg/kg/day, day 28, sexes combined) of the same compound?
**A.** 1.82 ± 0.28, 6 hr–1

**Q.** And the “time post-dose up to which PNA5 plasma concentrations were quantifiable” value ([3]; rats, s.c. 1, 5 or 40 mg/kg/day, day 1 and day 28, last sampling time 2 h)?
**A.** up to 2 h
